Results published in patent US5512471A, “Process for purifying an α-D-galactosidase isozyme from Coffea beans” (The Curators of the University of Missouri, priority 1992, dated 1996).

What follows are compounds tested on α-D-galactosidase isozyme (assay: Km determination by varying the substrate concentration). Settings: 50 mM Na citrate + 1 mg/ml BSA, pH 6.0; mean, S.D.=0.09, N=3.
Assay type: biochemical, Coffea canephora
Experimental: The pH optimum was determined by incubating aliquots of the enzyme in 40 mM Na citrate +40 mN Na H2 PO4 +1 mg/ml BSA+2.5 mM PNP-α-D-galactopyranoside, pH =2.0 to 8.0. The ionic strength optimum was determined by incubating aliquots of the enzyme in 5.0 mM Na citrate +1 mg/ml BSA +2.5 mM PNP α-D-galactopyranoside +0 to 1.0M Na Cl, pH =6.0. The Km for PNP-α-D-galactopyranoside was determined by varying the substrate concentration in 50 mM Na citrate +1 mg/ml BSA, pH =6.0. The native molecular weight of the isozyme was determined by applying a concentrated portion of the enzyme to a 1.5×45 cm Sephacryl S-200 column equilibrated in 25 mM Na citrate +200 mM NaCl, pH=6.0.

Row | Structure (SMILES) | Km
1 | O=[N+]([O-])c1ccc(O[C@H]2O[C@H](CO)[C@H](O)[C@H](O)[C@H]2O)cc1 [PNP-α-D-galactopyranoside] | 260 µM

Each compound was assayed on α-D-galactosidase isozyme (assay: Substrate specificity with PNP and 4-MU conjugates). Settings: 4-MU substrates, pH 6.0; % of activity on 4-MU-α-D-galactopyranoside.
Assay type: biochemical, Coffea canephora
Source text: Analytical procedures: Protein concentration was quantitated by the method of Bradford using bovine serum albumin (BSA) as a standard (9). […] One unit of activity was defined as 1.0 μmole of substrate hydrolyzed per minute.

Row | Structure (SMILES) | RELATIVE ACTIVITY
2 | CC(=O)NC1C(O)CC(Oc2ccc3c(C)cc(=O)oc3c2)(C(=O)O)OC1C(O)C(O)CO (stereo not drawn) [4-MU-N-acetyl-α-neuraminic acid] | < 0.01%
3 | Cc1cc(=O)oc2cc(O[C@H]3O[C@H](CO)[C@H](O)[C@H](O)[C@H]3O)ccc12 [4-MU-α-D-galactopyranoside] | 100.00%

Same assay, conditions: PNP conjugates 2.5 mM, pH 6.0; % of activity on PNP-α-D-galactopyranoside

Row | RELATIVE ACTIVITY | Structure (SMILES)
4 | 100.00% | O=[N+]([O-])c1ccc(O[C@H]2O[C@H](CO)[C@H](O)[C@H](O)[C@H]2O)cc1 [PNP-α-D-galactopyranoside]
5 | < 0.06% | C[C@@H]1O[C@@H](Oc2ccc([N+](=O)[O-])cc2)[C@@H](O)[C@H](O)[C@@H]1O [PNP-α-L-fucopyranoside]
6 | < 0.06% | O=[N+]([O-])c1ccc(O[C@@H]2O[C@H](CO)[C@H](O)[C@H](O)[C@H]2O)cc1 [PNP-β-D-galactopyranoside]
7 | < 0.06% | O=[N+]([O-])c1ccc(O[C@H]2O[C@H](CO)[C@@H](O)[C@H](O)[C@H]2O)cc1 [PNP-α-D-glucopyranoside]
8 | < 0.06% | C[C@@H]1O[C@H](Oc2ccc([N+](=O)[O-])cc2)[C@@H](O)[C@H](O)[C@@H]1O [PNP-β-L-fucopyranoside]
9 | < 0.06% | O=[N+]([O-])c1ccc(O[C@@H]2O[C@H](CO)[C@@H](O)[C@H](O)[C@H]2O)cc1 [PNP-β-D-glucopyranoside]

The next lines start with the compound.

Row | Structure (SMILES) | RELATIVE ACTIVITY
10 | CC(=O)N[C@H]1[C@@H](Oc2ccc([N+](=O)[O-])cc2)O[C@H](CO)[C@H](O)[C@@H]1O [PNP-N-acetyl-α-D-galactosaminide] | < 0.06%
11 | O=[N+]([O-])c1ccc(O[C@@H]2OC[C@H](O)[C@H](O)[C@H]2O)cc1 [PNP-α-L-arabinopyranoside] | < 0.06%
12 | CC(=O)N[C@H]1[C@@H](Oc2ccc([N+](=O)[O-])cc2)O[C@H](CO)[C@@H](O)[C@@H]1O [PNP-N-acetyl-α-D-glucosaminide] | < 0.06%
13 | CC(=O)N[C@H]1[C@H](Oc2ccc([N+](=O)[O-])cc2)O[C@H](CO)[C@H](O)[C@@H]1O [PNP-N-acetyl-β-D-galactosaminide] | < 0.06%
14 | CC(=O)N[C@H]1[C@H](Oc2ccc([N+](=O)[O-])cc2)O[C@H](CO)[C@@H](O)[C@@H]1O [PNP-N-acetyl-β-D-glucosaminide] | < 0.06%
